In PubChem BioAssay AID1996:
In brackets after ≈: the same amount, converted by molar mass.

Details: buffer; pH 7.4; 200.0 µM

Going from `Cc1ccnc(SCC(=O)c2cc3ccccc3o2)n1` to `Cc1cc(CNC(=O)c2cccnc2Cl)c2ccccc2n1`, the solubility kinetic rises from 1.3 µg/mL (≈ 4.57 µM) to 39.1 µg/mL (≈ 125 µM) (30-fold).

Going from `N#Cc1c(-c2ccc(Cl)cc2)cc(-c2cccs2)nc1SCC(=O)O` to `COCc1cc(C)nc(SCc2ccccc2Cl)c1C#N`, the solubility kinetic falls from 13.2 µg/mL (≈ 34.1 µM) to 0.3 µg/mL (≈ 0.941 µM) (44-fold).

Compared with `NS(=O)(=O)c1cc(C(=O)Nc2ccc3c(c2)CCC3)ccc1Cl`, `Cc1onc(-c2ccccc2)c1C(=O)Nc1cccc(S(=O)(=O)N2CCCCC2)c1` is 1.8-fold lower in solubility kinetic: 4.6 µg/mL (≈ 13.1 µM) for the first, 2.5 µg/mL (≈ 5.88 µM) for the second.

Compared with `O=C(Cc1ccc([N+](=O)[O-])cc1)Nc1ccc(Br)cn1`, `O=C(COc1ccc(Cl)cc1Br)Nc1ccncc1` is 2.1-fold higher in solubility kinetic: 2.4 µg/mL (≈ 7.14 µM) for the first, 5 µg/mL (≈ 14.6 µM) for the second.

Compared with `COc1cc2c(cc1OC)C(C)N(S(=O)(=O)c1cn(C)c(C)n1)CC2` (stereo not drawn), `COc1ccc(S(=O)(=O)n2cccc2)c(OC)c1` is lower in solubility kinetic: greater than 54.8 µg/mL for the first, 3.9 µg/mL (≈ 14.6 µM) for the second.

Going from `CCN1CCN(c2ccc(NC(=O)c3cccc(S(=O)(=O)N4CCCC4)c3)cc2)CC1` to `COc1cc(C)ccc1OC(C)C(=O)Nc1ccc(N2CCCCC2)cc1` (stereo not drawn), the solubility kinetic falls from 63.2 µg/mL (≈ 143 µM) to 2.7 µg/mL (≈ 7.33 µM) (23-fold).

Compared with `COc1cccc(NC(=O)c2ccccc2Oc2ccccc2)c1`, `CC(=O)Oc1ccccc1C(=O)NC(C)CCc1ccccc1` (stereo not drawn) is higher in solubility kinetic: 6.4 µg/mL (≈ 20 µM) for the first, greater than 46.7 µg/mL for the second.

`O=C(c1ccc2[nH]c(=O)c(=O)[nH]c2c1)N1CCc2ccccc21` and `O=C(O)/C=C/C(=O)N1CCc2ccccc21` cannot be ordered by solubility kinetic: 43 µg/mL (≈ 140 µM) for the first, greater than 32.6 µg/mL for the second.

Compared with `Cc1cc(C)c(C(=O)/C=C/c2cccs2)c(=O)[nH]1`, `C=CCNC(=O)c1cc2c(=O)n3cccc(C)c3nc2s1` is 10-fold lower in solubility kinetic: 34.4 µg/mL (≈ 133 µM) for the first, 3.4 µg/mL (≈ 11.4 µM) for the second.

Compared with `C=CCn1c(C)nc2ccccc2c1=O`, `N#Cc1cc2ccccc2nc1SCC(=O)NC1CC1` is lower in solubility kinetic: greater than 30 µg/mL for the first, 3.2 µg/mL (≈ 11.3 µM) for the second.

First: O=C1Nc2cc3c(cc2C1=O)sc1ccccc13
Second: NC(=O)Cn1cc(C=C2C(=O)NC(=O)NC2=O)c2ccccc21
The solubility kinetic of the first is 3.6-fold lower: 3.1 µg/mL (≈ 12.2 µM) for the first, 11.3 µg/mL (≈ 36.2 µM) for the second.

Going from `Cc1ccc(C)c(SCC(=O)Nc2cccnc2Cl)c1` to `Cc1ccc(NC(=O)N2CCc3ccccc3C2)c(C)c1`, the solubility kinetic rises from 2.9 µg/mL (≈ 9.45 µM) to 5.4 µg/mL (≈ 19.3 µM) (1.9-fold).

Going from `CC(C)N(Cc1ccccc1)C(=O)COC(=O)c1cc(S(=O)(=O)N(C)C)ccc1N1CCCC1` to `CCN(c1ccccc1)S(=O)(=O)c1ccc(C(=O)NC2CCN(Cc3ccccc3)CC2)cc1`, the solubility kinetic rises from 7.5 µg/mL (≈ 15.4 µM) to 47.8 µg/mL (≈ 100 µM) (6.4-fold).

First: Cc1cccc(Nc2ncnc(N)c2[N+](=O)[O-])n1
Second: CC(=O)N/C(N)=N/c1nc2cc([N+](=O)[O-])ccc2o1
The solubility kinetic of the first is higher: greater than 36.9 µg/mL for the first, 3.8 µg/mL (≈ 14.4 µM) for the second.

First: NC(=S)c1cc2cc(Cl)ccc2oc1=O
Second: Cc1oncc1C(=O)Nc1cccc(C#N)c1
The solubility kinetic of the first is lower: 1.6 µg/mL (≈ 6.68 µM) for the first, greater than 34.1 µg/mL for the second.

Going from `CC(OC(=O)CCOc1ccccc1)C(=O)Nc1ccc(Cl)cn1` (stereo not drawn) to `Cc1cnc(C(=O)OCC(=O)N=c2sccn2Cc2ccccc2Cl)cn1`, the solubility kinetic rises from 34.3 µg/mL (≈ 98.3 µM) to 55.2 µg/mL (≈ 137 µM) (1.6-fold).

`CCc1ccc(NC(=O)NCCN2CCCCC2)cc1` and `COc1ccc(NC2CCCN(C(=O)c3c(C)noc3C)C2)cc1` (stereo not drawn) cannot be ordered by solubility kinetic: greater than 41.3 µg/mL for the first, greater than 49.4 µg/mL for the second.

First: CC(C)(C)C1CCC(N2CCN(c3ccccc3)CC2)CC1 (stereo not drawn)
Second: CN1CCN(c2c(/C=N/O)c3ccccc3n2C)CC1
The solubility kinetic of the first is lower: 0.5 µg/mL (≈ 1.66 µM) for the first, greater than 40.9 µg/mL for the second.

`CC(C)(O)C(=O)NNC(=S)NCc1ccco1` and `COC(=O)c1ccc(C(=O)OC)c(NC(=O)/C=C/C(=O)O)c1` cannot be ordered by solubility kinetic: greater than 38.6 µg/mL for the first, greater than 46.1 µg/mL for the second.

Going from `COc1ccc2oc(C(=O)N3CCN(S(=O)(=O)c4ccc(F)cc4)CC3)c(C)c2c1` to `Cc1ccccc1OCC(=O)OCC(=O)NCc1ccc2c(c1)OCO2`, the solubility kinetic rises from 7.5 µg/mL (≈ 17.3 µM) to 17.3 µg/mL (≈ 48.4 µM) (2.3-fold).

`O=[N+]([O-])c1ccc(Sc2n[nH]c(-c3ccncc3)n2)nc1` and `CCc1nc2cccnc2n1-c1ccc(CC(=O)NC(C)CC)cc1` (stereo not drawn) cannot be ordered by solubility kinetic: greater than 45 µg/mL for the first, greater than 50.5 µg/mL for the second.

Compared with `C=CCN1C(=O)/C(=C/c2ccc(Br)s2)C(=O)NC1=S`, `CC1(CCc2ccccc2)NC(=O)N(CC(=O)Nc2c(F)cccc2F)C1=O` (stereo not drawn) is higher in solubility kinetic: 15.7 µg/mL (≈ 43.9 µM) for the first, greater than 58.1 µg/mL for the second.

`Cc1cc(C)c(NC(=O)C2CC(=O)N(C(C)C)C2)c(C)c1` (stereo not drawn) and `CC1(C)OC(=O)N(CCC(=O)Nc2cccc(F)c2)C1(C)O` (stereo not drawn) cannot be ordered by solubility kinetic: greater than 43.3 µg/mL for the first, greater than 46.5 µg/mL for the second.

Compared with `N#Cc1ccc(CN2C=NS(=O)(=O)c3ccccc32)cc1`, `Cc1ccc(CNC(=O)CN2C(=O)c3ccccc3S2(=O)=O)cc1` is 3.5-fold lower in solubility kinetic: 43.7 µg/mL (≈ 147 µM) for the first, 12.5 µg/mL (≈ 36.3 µM) for the second.

Going from `O=[N+]([O-])c1cc(C(F)(F)F)ccc1NCC1CCCO1` (stereo not drawn) to `COc1ccc(NC(=O)COC(=O)C2CCC2)cc1Cl`, the solubility kinetic rises from 0.6 µg/mL (≈ 2.07 µM) to 42.8 µg/mL (≈ 144 µM) (71-fold).

Compared with `CC1(C)CC(=O)C=C(NCC(O)c2ccccc2)C1` (stereo not drawn), `CC1(C)C(C=C(Cl)Cl)C1C(=O)NC(O)C(=O)c1ccccc1` (stereo not drawn) is 3.4-fold lower in solubility kinetic: 36.7 µg/mL (≈ 142 µM) for the first, 10.8 µg/mL (≈ 31.6 µM) for the second.

First: CN1CCc2c(sc(/N=C/c3cc(C(C)(C)C)ccc3O)c2C#N)C1
Second: Cc1nsc(Nc2ccccc2)c1C#N
The solubility kinetic of the first is 2.3-fold lower: 3.4 µg/mL (≈ 9.62 µM) for the first, 7.7 µg/mL (≈ 35.8 µM) for the second.

First: CCOC(=O)C(=CNc1ccc(Oc2cncc(Cl)c2)nc1)C(=O)OCC
Second: CC(C)Oc1ccc(CCN=C(N)N=C(N)N)cc1Cl.Cl
The solubility kinetic of the first is lower: 5 µg/mL (≈ 12.8 µM) for the first, greater than 50.1 µg/mL for the second.

First: N#Cc1c(N2CCCC(O)C2)nc(N)c2c(N)nc3c(c12)CC(=O)N3C12CC3CC(CC(C3)C1)C2 (stereo not drawn)
Second: CC1CCN(c2ccc3nnc(CCC(=O)NC(C)C)n3n2)CC1
The solubility kinetic of the first is lower: 2.4 µg/mL (≈ 5.07 µM) for the first, greater than 49.6 µg/mL for the second.
